Results from ChEMBL document CHEMBL1201862, “PubChem BioAssay data set” (2004).
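Following 48 hours of exposure in 96-well plates, responses at five concentrations were used to interpolate endpoints linearly. GI50 marks 50% less growth.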 Activity calls are given as the source filed them. Cut-off read from the data, not from the text of the source: active = GI50 up to about 1.1 µM and inactive = higher.

Columns and labels:
Test in all cases: growth of human tumour cells (NCI), 48 h
Malme-3M = tested on: Malme-3M
DMS-273 = tested on: DMS-273
UACC-62 = tested on: UACC-62
SK-MEL-28 = tested on: SK-MEL-28
HOP-92 = tested on: HOP-92
SNB-19 = tested on: SNB-19
KM-20L2 = tested on: KM-20L2
M14 = tested on: M14
SW-620 = tested on: SW-620
KM12 = tested on: KM12
NCI-H23 = tested on: NCI-H23
LXFL 529 = tested on: LXFL 529
MOLT-4 = tested on: MOLT-4
NCI-H522 = tested on: NCI-H522
A549 = tested on: A549
HCT-116 = tested on: HCT-116

SMILES | GI50 (Malme-3M) | GI50 (DMS-273) | GI50 (UACC-62) | GI50 (SK-MEL-28) | GI50 (HOP-92) | GI50 (SNB-19) | GI50 (KM-20L2) | GI50 (M14) | GI50 (SW-620) | GI50 (KM12) | GI50 (NCI-H23) | GI50 (LXFL 529) | GI50 (MOLT-4) | GI50 (NCI-H522) | GI50 (A549) | GI50 (HCT-116)
O=C(CSSCC(=O)Nc1ccc(Br)cc1)Nc1ccc(Br)cc1 | 21.8 µM (inactive) | 16.5 µM (inactive) | 15.9 µM (inactive) | 18.5 µM (inactive) | 19 µM (inactive) | 15.3 µM (inactive) | 15.1 µM (inactive) | 17.7 µM (inactive) | 15.2 µM (inactive) | 19.1 µM (inactive) | 19.3 µM (inactive) | 16 µM (inactive) | 14.1 µM (inactive) | 12.2 µM (inactive) | 16.8 µM (inactive) | 14.4 µM (inactive)
COC(=O)C12CC(c3ccccc31)C1C(=O)OC(=O)C12 (stereo not drawn) | > 100 µM (inactive) | > 100 µM (inactive) | > 100 µM (inactive) | > 100 µM (inactive) | > 100 µM (inactive) | > 100 µM (inactive) | > 100 µM (inactive) | > 100 µM (inactive) | > 100 µM (inactive) | > 100 µM (inactive) | > 100 µM (inactive) | > 100 µM (inactive) | > 100 µM (inactive) | > 100 µM (inactive) | > 100 µM (inactive) | > 100 µM (inactive)
C=C(C(=C)P(=S)(c1ccccc1)c1ccccc1)P(=S)(c1ccccc1)c1ccccc1 | 74.8 µM (inactive) | > 100 µM (inactive) | > 100 µM (inactive) | > 100 µM (inactive) | 2.52 µM (inactive) | > 100 µM (inactive) | > 100 µM (inactive) | > 100 µM (inactive) | > 100 µM (inactive) | > 100 µM (inactive) | > 100 µM (inactive) | > 100 µM (inactive) | > 100 µM (inactive) | > 100 µM (inactive) | > 100 µM (inactive) | > 100 µM (inactive)
Cc1nc(Nc2ccccc2)sc1C(=O)NNC(N)=O | > 100 µM (inactive) | > 100 µM (inactive) | > 100 µM (inactive) | > 100 µM (inactive) | 64.4 µM (inactive) | > 100 µM (inactive) | > 100 µM (inactive) | > 100 µM (inactive) | > 100 µM (inactive) | > 100 µM (inactive) | > 100 µM (inactive) | > 100 µM (inactive) | > 100 µM (inactive) | > 100 µM (inactive) | > 100 µM (inactive) | > 100 µM (inactive)
O=C1/C(=C/c2ccccc2)CN(C(=O)Oc2ccc(Cl)cc2)C/C1=C\c1ccccc1 | 11.3 µM (inactive) | 1.83 µM (inactive) | 2.31 µM (inactive) | 2.1 µM (inactive) | 21.8 µM (inactive) | 3.31 µM (inactive) | 2.71 µM (inactive) | 1.53 µM (inactive) | 1.22 µM (inactive) | 1.49 µM (inactive) | 3.22 µM (inactive) | 1.72 µM (inactive) | 2.65 µM (inactive) | 2.25 µM (inactive) | 9.33 µM (inactive) | 0.239 µM (active)
CC(=O)Nc1ccc(C(=O)NN2C(=O)C(Cl)C2c2cc(Br)cc(Br)c2O)cc1 (stereo not drawn) | > 100 µM (inactive) | > 100 µM (inactive) | > 100 µM (inactive) | > 10 µM (inactive) | > 100 µM (inactive) | > 100 µM (inactive) | > 100 µM (inactive) | > 100 µM (inactive) | > 100 µM (inactive) | > 100 µM (inactive) | > 100 µM (inactive) | > 100 µM (inactive) | > 100 µM (inactive) | > 100 µM (inactive) | > 100 µM (inactive) | > 100 µM (inactive)
CCC(COC(=O)CC[C@@H](NC(=O)C(C)NC(=O)C(C)OC1C(O)C(CO)OC(OCc2ccccc2)C1NC(C)=O)C(N)=O)NC1c2ccccc2Nc2cccc([N+](=O)[O-])c21 (stereo partly drawn) | > 100 µM (inactive) | > 100 µM (inactive) | > 100 µM (inactive) | > 100 µM (inactive) | > 100 µM (inactive) | > 100 µM (inactive) | > 100 µM (inactive) | > 100 µM (inactive) | > 100 µM (inactive) | > 100 µM (inactive) | > 100 µM (inactive) | 41.8 µM (inactive) | > 100 µM (inactive) | > 100 µM (inactive) | > 100 µM (inactive) | > 100 µM (inactive)
O=C(CCc1nnc(S)[nH]1)Nc1cccc(C(F)(F)F)c1 | > 100 µM (inactive) | > 100 µM (inactive) | > 100 µM (inactive) | > 100 µM (inactive) | > 100 µM (inactive) | > 100 µM (inactive) | > 100 µM (inactive) | > 100 µM (inactive) | 11.2 µM (inactive) | > 100 µM (inactive) | > 100 µM (inactive) | > 100 µM (inactive) | > 100 µM (inactive) | 35.2 µM (inactive) | > 100 µM (inactive) | > 100 µM (inactive)
